In patent US11866420B2, “Hydrochloride salt forms of a sulfonamide structured kinase inhibitor” (Aurigene Oncology Limited, priority 2018, dated 2024):
Counter-ions that a name gives are not always drawn.

Legend:
Water solubility = type: physicochemical; details: physiological pH range
[1] = Bioavailability after oral administration; type: in vivo
[2] = Thermogravimetric analysis (TGA), onset of disproportionation; type: physicochemical; details: for Onset temperature of disproportionation: TGA with head space mass spectroscopy, start of rapid evaporation of Cl ion
Experimental: The TGA thermograms for the crystalline forms 1, 3, 5 and 8 were collected on TGA equipment (TA Instruments). The gases recovered during each run were analyzed by head space mass spectroscopy (Agilent GS system). The measurement allowed to register the temperature at which rapid evaporation of Cl ion (disproportionation) started.
The onset temperature of disproportionation for crystalline forms 1, 3, 5 and 8 was determined based on TGA measurements.

[3] = Stability of the crystalline forms in different water activity conditions (slurry experiments); type: physicochemical; details: for Resulting crystalline form: HCl added; for Water activity conditions under which the crystalline form is favoured: water/methanol slurries with HCl, room temperature, 3 days
Source text: Stability of the crystalline forms in different water activity conditions was studied in slurry experiments where crystalline forms 1 and 3 were stirred for 3 days at room temperature in mixtures of water and methanol in the presence of HCl to maintain acidic conditions.

[4] = Hygroscopicity (Dynamic Vapour Sorption); type: physicochemical; details: between 20%-90% RH, T=25° C., DVS mass change
Experimental: The hygroscopicity of the crystalline forms 1, 3, 5 and 8 was evaluated using DVS-1 Dynamic Vapour Sorption equipment (Surface Measurement Systems Ltd, London, UK). The amount of 5-10 mg of each crystalline form was equilibrated at 20% RH. The mass change (%) was recorded at 30%, 40%, 50%, 60%, 70%, 80% and 90% RH at T=25° C. The equilibration condition at each point was dm/dt≤0.0003.

[5] = Long-term stability of forms 3 and 8 at different storage conditions; type: physicochemical
Experimental: Long-term stability of crystalline forms 3 and 8 at different storage conditions was studied. The conditions were a) 25° C./RH 60% in a closed vessel, b) 40° C./RH 75% in a closed vessel, c) 40° C./RH 75% in an open vessel and d) 25° C./RH 100% in an open vessel.

Cn1cc(-c2ccc3c(c2)ncn3-c2cc(NS(=O)(=O)C3CC3)cc(-c3ccc(F)cc3F)c2)cn1 [Compound (I), N-(2′,4′-difluoro-5-(5-(1-methyl-1H-pyrazol-4-yl)-1H-benzo[d]imidazol-1-yl)-[1,1′-biphenyl]-3-yl)cyclopropanesulfonamide]
Solubility in water (Water solubility): practically insoluble | Bioavailability after oral administration [1]: very low

Cn1cc(-c2ccc3c(c2)ncn3-c2cc(NS(=O)(=O)C3CC3)cc(-c3ccc(F)cc3F)c2)cn1 [Form 1, N-(2′,4′-difluoro-5-(5-(1-methyl-1H-pyrazol-4-yl)-1H-benzo[d]imidazol-1-yl)-[1,1′-biphenyl]-3-yl)cyclopropanesulfonamide hydrochloride]
Onset temperature of disproportionation ([2]; listed as 1, hydrochloride): 148 °C | Resulting crystalline form ([3]; 16% H2O in MeOH, water activity 0.44, slurry 3 days at room temperature): Form 3 + Form 8 | Resulting crystalline form ([3]; 26.6% H2O in MeOH, water activity 0.59, slurry 3 days at room temperature): Form 3 + Form 8 | Resulting crystalline form ([3]; 45.2% H2O in MeOH, water activity 0.75, slurry 3 days at room temperature): Form 8 | Resulting crystalline form ([3]; 71.5% H2O in MeOH, water activity 0.88, slurry 3 days at room temperature): Form 5 | Hygroscopicity ([4]; hydrochloride): particularly low hygroscopicity

Cn1cc(-c2ccc3c(c2)ncn3-c2cc(NS(=O)(=O)C3CC3)cc(-c3ccc(F)cc3F)c2)cn1 [Form 3, N-(2′,4′-difluoro-5-(5-(1-methyl-1H-pyrazol-4-yl)-1H-benzo[d]imidazol-1-yl)-[1,1′-biphenyl]-3-yl)cyclopropanesulfonamide hydrochloride]
Long-term stability: stable up to ([5]; 25° C./RH 60% closed vessel, listed as Crystalline form 3, hydrochloride): Stable up to 36 months | Long-term stability: time after which form changed ([5]; 25° C./RH 100% open vessel): 1 week | Long-term stability: change of crystalline form ([5]; 25° C./RH 100% open vessel, hydrochloride): 5 | Long-term stability: change of crystalline form ([5]; 25° C./RH 100% open vessel, listed as Crystalline form 3, hydrochloride): Change to form 5 after | Long-term stability: stable up to ([5]; 40° C./RH 75% closed vessel, listed as Crystalline form 3, hydrochloride): Stable up to 12 months | Long-term stability: time after which form changed ([5]; 40° C./RH 75% open vessel): 1 days | Long-term stability: change of crystalline form ([5]; 40° C./RH 75% open vessel, hydrochloride): changes to form 8 | Long-term stability: change of crystalline form ([5]; 40° C./RH 75% open vessel, listed as Crystalline form 3, hydrochloride): Change to form 8 after | Onset temperature of disproportionation ([2]; listed as 3, hydrochloride): 171 °C | Resulting crystalline form ([3]; 4.7% H2O in MeOH, water activity 0.17, slurry 3 days at room temperature): Form 3 | Resulting crystalline form ([3]; 10% H2O in MeOH, water activity 0.31, slurry 3 days at room temperature): Form 3 | Resulting crystalline form ([3]; MeOH, water activity 0, slurry stirred 3 days at room temperature): Form 3 | Water activity conditions under which the crystalline form is favoured ([3]; listed as crystalline form 3, hydrochloride): ambient to about 0.3

Cn1cc(-c2ccc3c(c2)ncn3-c2cc(NS(=O)(=O)C3CC3)cc(-c3ccc(F)cc3F)c2)cn1 [Form 5, N-(2′,4′-difluoro-5-(5-(1-methyl-1H-pyrazol-4-yl)-1H-benzo[d]imidazol-1-yl)-[1,1′-biphenyl]-3-yl)cyclopropanesulfonamide hydrochloride]
Onset temperature of disproportionation ([2]; listed as 5, hydrochloride): 145 °C | Water activity conditions under which the crystalline form is favoured ([3]; listed as crystalline form 5, hydrochloride): about 0.9

Cn1cc(-c2ccc3c(c2)ncn3-c2cc(NS(=O)(=O)C3CC3)cc(-c3ccc(F)cc3F)c2)cn1 [Form 8, N-(2′,4′-difluoro-5-(5-(1-methyl-1H-pyrazol-4-yl)-1H-benzo[d]imidazol-1-yl)-[1,1′-biphenyl]-3-yl)cyclopropanesulfonamide hydrochloride]
Long-term stability: stable up to ([5]; 25° C./RH 60% closed vessel, listed as Crystalline form 8, hydrochloride): ≥ 36 months | Long-term stability: stable up to ([5]; 25° C./RH 100% open vessel): ≥ 2 months | Long-term stability: stable up to ([5]; 40° C./RH 75% closed vessel, listed as Crystalline form 8, hydrochloride): ≥ 6 months | Long-term stability: stable up to ([5]; 40° C./RH 75% open vessel): ≥ 1 month | Stability at storage conditions (overall) ([5]; all storage conditions (25° C./RH 60%, 40° C./RH 75% closed and open, 25° C./RH 100% open)): good stability | Onset temperature of disproportionation ([2]; listed as 8, hydrochloride): 187 °C | Thermal stability against disproportionation ([2]; TGA, compared among crystalline forms 1, 3, 5 and 8): highest thermal stability | Hygroscopicity ([4]; listed as form 8, hydrochloride): practically non-hygroscopic
